Laboratory results as given in patent US11446287B2, “Compounds and methods for EP300 or CBP modulation and indications therefor” (Opna Immuno-Oncology SA, priority 2019, dated 2022).

biological target: T1, Recombinant human CBP containing the bromodomain (CBP-BD (1043-1159)) (Homo sapiens, UniProt Q92793); assay: CBP Alphascreen binding assay; settings: read-out: CREBBP (CBP) IC50
T1 construct: Recombinant human CBP bromodomain (CBP-BD (1043-1159)); made in house; host or cells: E. coli BL21-CodonPlus (DE3), modified pET vector
In short: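 Buffer: 50 mM HEPES pH 7.5, 50 mM NaCl, 0.01% BSA, 0.01% Triton X-100, 2 mM DTT. The signal was normalised to plate controls and fitted with a four-parameter curve to give IC50.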

T1 sequence (Q92793 1081-1197): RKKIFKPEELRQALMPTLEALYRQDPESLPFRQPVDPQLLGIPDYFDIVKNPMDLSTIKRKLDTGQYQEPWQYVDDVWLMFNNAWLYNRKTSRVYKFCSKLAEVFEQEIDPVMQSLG

SMILES	IC50 [µM]
Cc1noc(C)c1-c1cnc2c(c1)c(-c1ccc(C(=O)O)cc1OC(C)C)cn2[C@H]1CCOC1 [P-0301, (S)-4-(5-(3,5-dimethylisoxazol-4-yl)-1-(tetrahydrofuran-3-yl)-1H-pyrrolo[2,3-b]pyridin-3-yl)-3-isopropoxybenzoic acid]	0.0001 to 1
Cc1noc(C)c1-c1cnc2c(-c3cccc(C(=O)O)c3C)c(C(F)(F)F)n([C@@H](C)c3ccccn3)c2c1 [P-0246, (S)-3-(6-(3,5-dimethylisoxazol-4-yl)-1-(1-(pyridin-2-yl)ethyl)-2-(trifluoromethyl)-1H-pyrrolo[3,2-b]pyridin-3-yl)-2-methylbenzoic acid]	1 to 8
Cc1noc(C)c1-c1cnc2c(c1)c(-c1ccc(S(C)(=O)=O)cc1OC(C)C)cn2-c1ccccc1 [P-0302, 4-(3-(2-isopropoxy-4-(methylsulfonyl)phenyl)-1-phenyl-1H-pyrrolo[2,3-b]pyridin-5-yl)-3,5-dimethylisoxazole]	0.0001 to 1
CCOc1cc(C(=O)O)cc(OCC)c1-n1cc(-c2cnn(CC3CC3)c2)c2ncc(-c3c(C)noc3C)cc21 [P-0264, 4-(3-(1-(cyclopropylmethyl)-1H-pyrazol-4-yl)-6-(3,5-dimethylisoxazol-4-yl)-1H-pyrrolo[3,2-b]pyridin-1-yl)-3,5-diethoxybenzoic acid]	0.0001 to 1
Cc1noc(C)c1-c1cnc2c(-c3cc(C(=O)O)ccc3Cl)c(C(F)(F)F)n([C@@H](C)c3ccccn3)c2c1 [P-0257, (S)-4-chloro-3-(6-(3,5-dimethylisoxazol-4-yl)-1-(1-(pyridin-2-yl)ethyl)-2-(trifluoromethyl)-1H-pyrrolo[3,2-b]pyridin-3-yl)benzoic acid]	0.0001 to 1
Cc1cc(C#N)ccc1-n1cc(-c2ccc(C(=O)O)cc2OC(F)(F)F)c2cc(-c3c(C)noc3C)cnc21 [P-0310, 4-(1-(4-cyano-2-methylphenyl)-5-(3,5-dimethylisoxazol-4-yl)-1H-pyrrolo[2,3-b]pyridin-3-yl)-3-(trifluoromethoxy)benzoic acid]	0.0001 to 1
Cc1noc(C)c1-c1cnc2c(c1)c(-c1ccc(C(=O)O)cc1OC(F)(F)F)cn2C1CCNCC1 [P-0290, 4-(5-(3,5-dimethylisoxazol-4-yl)-1-(piperidin-4-yl)-1H-pyrrolo[2,3-b]pyridin-3-yl)-3-(trifluoromethoxy)benzoic acid]	0.0001 to 1
Cc1noc(C)c1-c1cnc2c(c1)c(-c1ccc(C(=O)O)cc1OC(F)(F)F)cn2-c1ccc(S(C)(=O)=O)cc1 [P-0282, 4-(5-(3,5-dimethylisoxazol-4-yl)-1-(4-(methylsulfonyl)phenyl)-1H-pyrrolo[2,3-b]pyridin-3-yl)-3-(trifluoromethoxy)benzoic acid]	0.0001 to 1
Cc1noc(C)c1-c1cnc2c(c1)c(-c1ccc(C(=O)O)cc1OC(F)(F)F)cn2[C@@H]1CCOC1 [P-0286, (R)-4-(5-(3,5-dimethylisoxazol-4-yl)-1-(tetrahydrofuran-3-yl)-1H-pyrrolo[2,3-b]pyridin-3-yl)-3-(trifluoromethoxy)benzoic acid]	0.0001 to 1
Cc1noc(C)c1-c1cnc2c(c1)c(-c1ccc(C(=O)O)cc1OC(F)(F)F)cn2-c1cnn(CC(C)(C)O)c1 [P-0294, 4-(5-(3,5-dimethylisoxazol-4-yl)-1-(1-(2-hydroxy-2-methylpropyl)-1H-pyrazol-4-yl)-1H-pyrrolo[2,3-b]pyridin-3-yl)-3-(trifluoromethoxy)benzoic acid]	0.0001 to 1
Cc1noc(C)c1-c1cnc2c(c1)c(-c1cc(C(=O)O)ccc1OC(F)(F)F)cn2C(C1CC1)C1CC1 [P-0284, 3-(1-(dicyclopropylmethyl)-5-(3,5-dimethylisoxazol-4-yl)-1H-pyrrolo[2,3-b]pyridin-3-yl)-4-(trifluoromethoxy)benzoic acid]	0.0001 to 1
Cc1noc(C)c1-c1cnc2c(c1)c(-c1ccc(C(=O)O)cc1OC(F)(F)F)cn2-c1ccc(C#N)cc1 [P-0313, 4-(1-(4-cyanophenyl)-5-(3,5-dimethylisoxazol-4-yl)-1H-pyrrolo[2,3-b]pyridin-3-yl)-3-(trifluoromethoxy)benzoic acid]	0.0001 to 1
Cc1noc(C)c1-c1cnc2c(c1)c(-c1ccc(C(=O)O)nc1)cn2C(c1ccccn1)C1CCCC1 (stereo not shown) [P-0026, 5-(1-(cyclopentyl(pyridin-2-yl)methyl)-5-(3,5-dimethylisoxazol-4-yl)-1H-pyrrolo[2,3-b]pyridin-3-yl)picolinic acid]	0.0001 to 1
Cc1noc(C)c1-c1cnc2c(c1)c(-c1ccc(C(=O)O)cc1OC(C)C)cn2-c1cnc(N2CCC2)nc1 [P-0300, 4-(1-(2-(azetidin-1-yl)pyrimidin-5-yl)-5-(3,5-dimethylisoxazol-4-yl)-1H-pyrrolo[2,3-b]pyridin-3-yl)-3-isopropoxybenzoic acid]	0.0001 to 1
CCOc1c(F)c(C(=O)O)c(F)c(OCC)c1-c1cn(-c2ccc(F)cc2F)c2ncc(-c3c(C)noc3C)cc12 [P-0296, 4-(1-(2,4-difluorophenyl)-5-(3,5-dimethylisoxazol-4-yl)-1H-pyrrolo[2,3-b]pyridin-3-yl)-3,5-diethoxy-2,6-difluorobenzoic acid]	0.0001 to 1
Cc1noc(C)c1-c1cnc2c(-c3ccc(C(=O)O)cc3C#N)c(C(F)(F)F)n([C@@H](C)c3ccccn3)c2c1 [P-0256, (S)-3-cyano-4-(6-(3,5-dimethylisoxazol-4-yl)-1-(1-(pyridin-2-yl)ethyl)-2-(trifluoromethyl)-1H-pyrrolo[3,2-b]pyridin-3-yl)benzoic acid]	0.0001 to 1
CCOc1cc(C(=O)O)cc(OCC)c1-n1cc(-c2cnn(CC(=O)N(C)C)c2)c2ncc(-c3c(C)noc3C)cc21 [P-0267, 4-(3-(1-(2-(dimethylamino)-2-oxoethyl)-1H-pyrazol-4-yl)-6-(3,5-dimethylisoxazol-4-yl)-1H-pyrrolo[3,2-b]pyridin-1-yl)-3,5-diethoxybenzoic acid]	0.0001 to 1
CCOC(=O)c1cc(-c2cn(-c3ccc(F)cc3F)c3ncc(-c4c(C)noc4C)cc23)c(OCC)cc1O [P-0248, ethyl 5-(1-(2,4-difluorophenyl)-5-(3,5-dimethylisoxazol-4-yl)-1H-pyrrolo[2,3-b]pyridin-3-yl)-4-ethoxy-2-hydroxybenzoate]	8 to 1000
Cc1noc(C)c1-c1cnc2c(c1)c(-c1ccc(C(=O)O)cc1OC(C)C)cn2-c1ccccc1 [P-0275, 4-(5-(3,5-dimethylisoxazol-4-yl)-1-phenyl-1H-pyrrolo[2,3-b]pyridin-3-yl)-3-isopropoxybenzoic acid]	0.0001 to 1
Cc1noc(C)c1-c1cnc2c(c1)c(-c1ccc(C(=O)O)cc1OC(F)(F)F)cn2-c1cnccc1F [P-0251, 4-(5-(3,5-dimethylisoxazol-4-yl)-1-(4-fluoropyridin-3-yl)-1H-pyrrolo[2,3-b]pyridin-3-yl)-3-(trifluoromethoxy)benzoic acid]	0.0001 to 1
CCn1cc(-n2cc(-c3ccc(C(=O)O)cc3OC(F)(F)F)c3cc(-c4c(C)noc4C)cnc32)c(C)n1 [P-0287, 4-(5-(3,5-dimethylisoxazol-4-yl)-1-(1-ethyl-3-methyl-1H-pyrazol-4-yl)-1H-pyrrolo[2,3-b]pyridin-3-yl)-3-(trifluoromethoxy)benzoic acid]	0.0001 to 1
CCOc1cc(C(=O)O)cc(OCC)c1-n1cc(-c2cnn(CCC#N)c2)c2ncc(-c3c(C)noc3C)cc21 [P-0266, 4-(3-(1-(2-cyanoethyl)-1H-pyrazol-4-yl)-6-(3,5-dimethylisoxazol-4-yl)-1H-pyrrolo[3,2-b]pyridin-1-yl)-3,5-diethoxybenzoic acid]	0.0001 to 1
